According to patent US10456379B2, “Imidazole-based antimicrobial agents” (priority 2014, dated 2019):
Values after ≈ are worked out from the molar mass of the structure shown.

test system: Streptococcus pneumoniae (Chester, ATCC49619); experiment: Broth microdilution MIC assay, Streptococcus pneumoniae; assay type: cell-based; details: MIC class score, MIC100, broth microdilution

SMILES	Antibacterial activity Streptococcus pneumoniae
Cc1nc(-c2ccc(-c3cc(F)ccc3C(F)(F)F)o2)[nH]c1-c1ccccc1 [31a]	3 (MIC100 of 2-5 μg/ml)
Cc1[nH]c(-c2cc(C)n(-c3ccc(Cl)cc3)c2C)nc1-c1ccccc1 [compound 8]	3 (MIC100 of 2-5 μg/ml)
Cc1[nH]c(-c2ccc(-c3ccccc3C(F)(F)F)o2)nc1-c1ccc(Br)cc1 [compound 25]	3 (MIC100 of 2-5 μg/ml)
Cc1nc(-c2ccc(-c3cc(C(F)(F)F)cc(C(F)(F)F)c3)o2)[nH]c1-c1ccccc1 [compound 35]	2 (MIC100 of 6-10 μg/ml)
Cc1nc(-c2ccc(-c3cc(C(F)(F)F)ccc3Cl)o2)[nH]c1-c1ccccc1 [compound 40]	2 (MIC100 of 6-10 μg/ml)
CCc1ccc(-c2ccc(-c3nc(-c4ccccc4)c(C)[nH]3)o2)cc1 [compound 53]	3 (MIC100 of 2-5 μg/ml)
Cc1ccc(-c2ccc(-c3nc(-c4ccccc4)c(C)[nH]3)s2)cc1 [compound 54]	2 (MIC100 of 6-10 μg/ml)
Cc1ccc(-c2nc(-c3nc(-c4ccccc4)c(C)[nH]3)co2)cc1 [compound 57]	3 (MIC100 of 2-5 μg/ml)
Cc1ccccc1-c1ccc(-c2nc(C)c(-c3ccccc3)[nH]2)o1 [compound 61]	3 (MIC100 of 2-5 μg/ml)
Cc1cccc(C)c1-c1ccc(-c2nc(C)c(-c3ccccc3)[nH]2)o1 [compound 62]	3 (MIC100 of 2-5 μg/ml)
FC(F)(F)Oc1ccccc1-c1ccc(-c2ncc(-c3ccccc3)[nH]2)o1 [compound 63]	3 (MIC100 of 2-5 μg/ml)
Cc1nc(-c2ccc(-c3ccccc3N(C)C)o2)[nH]c1-c1ccccc1 [compound 71]	3 (MIC100 of 2-5 μg/ml)
Cc1[nH]c(-c2cnn(-c3ccccc3)n2)nc1-c1ccccc1 [compound 73]	2 (MIC100 of 6-10 μg/ml)
Cc1nc(-c2ccc(-c3ccccc3Br)o2)[nH]c1C [compound 84]	2 (MIC100 of 6-10 μg/ml)
Cc1nc(-c2ccc(-c3ccccc3Cl)o2)[nH]c1C [compound 86]	3 (MIC100 of 2-5 μg/ml)
Cc1nc(-c2ccc(-c3cccc4[nH]ccc34)o2)[nH]c1-c1ccccc1 [compound 138]	2 (MIC100 of 6-10 μg/ml)
Cc1nc(-c2ccc(-c3ccc(O)cc3C(F)(F)F)o2)[nH]c1-c1ccccc1 [compound 139]	3 (MIC100 of 2-5 μg/ml)

SMILES	Antibacterial activity Streptococcus pneumoniae
Cc1nc(-c2ccc(/C=C/c3ccccc3)o2)[nH]c1-c1ccccc1 [compound 143]	3 (MIC100 of 2-5 μg/ml)
Cc1nc(-c2ccc(-c3ccc4[nH]ccc4c3)o2)[nH]c1-c1ccccc1 [compound 144]	3 (MIC100 of 2-5 μg/ml)
Cc1nc(-c2ccc(-c3cccc(F)c3)o2)[nH]c1-c1ccccc1 [compound 146]	3 (MIC100 of 2-5 μg/ml)
Cc1nc(-c2ccc(-c3ccc(F)cc3)o2)[nH]c1-c1ccccc1 [compound 148]	3 (MIC100 of 2-5 μg/ml)
Cc1nc(-c2ccc(-c3ccc4cc[nH]c4c3)o2)[nH]c1-c1ccccc1 [compound 152]	3 (MIC100 of 2-5 μg/ml)
Cc1nc(-c2ccc(-c3ccc(F)c(F)c3)o2)[nH]c1-c1ccccc1 [compound 153]	3 (MIC100 of 2-5 μg/ml)
Cc1nc(-c2ccc(-c3ccc(O)c(C(F)(F)F)c3)o2)[nH]c1-c1ccccc1 [compound 155]	3 (MIC100 of 2-5 μg/ml)
Cc1nc(-c2ccc(-c3ccc(O)c(Cl)c3)o2)[nH]c1-c1ccccc1 [compound 157]	3 (MIC100 of 2-5 μg/ml)
Cc1nc(-c2ccc(-c3ccc(O)cc3Cl)o2)[nH]c1-c1ccccc1 [compound 158]	3 (MIC100 of 2-5 μg/ml)
Cc1nc(-c2ccc(-c3ccc4occc4c3)o2)[nH]c1-c1ccccc1 [compound 159]	3 (MIC100 of 2-5 μg/ml)
Cc1nc(-c2ccc(-c3cccc4cc[nH]c34)o2)[nH]c1-c1ccccc1 [compound 161]	3 (MIC100 of 2-5 μg/ml)
Cc1[nH]c(-c2ccc(-c3ccccc3F)o2)nc1-c1ccccc1 [compound 162]	3 (MIC100 of 2-5 μg/ml)
Cc1[nH]c(-c2ccc(-c3c(F)cccc3F)o2)nc1-c1ccccc1 [compound 163]	3 (MIC100 of 2-5 μg/ml)
Cc1cc(F)ccc1-c1ccc(-c2nc(-c3ccccc3)c(C)[nH]2)o1 [compound 164]	3 (MIC100 of 2-5 μg/ml)
Cc1[nH]c(-c2ccc(-c3ccc(C(C)(C)C)cc3)o2)nc1-c1ccccc1 [compound 165]	2 (MIC100 of 6-10 μg/ml)
Cc1nc(-c2ccc(-c3ccc(O)cc3F)o2)[nH]c1-c1ccccc1 [compound 168]	3 (MIC100 of 2-5 μg/ml)

same assay, conditions: Streptococcus pneumoniae, ATCC49619; read-out: Antibacterial activity, SP (Streptococcus pneumoniae), MIC class

SMILES	MIC
Cc1nc(-c2ccc(-c3ccc(Cl)cc3)o2)[nH]c1-c1ccccc1 [compound 5]	< 1 µg/mL
Cc1[nH]c(-c2ccc(-c3ccc(F)cc3)s2)nc1-c1ccccc1 [compound 7]	2 to 5 µg/mL (≈ 5.98 to 15 µM)
Cc1[nH]c(-c2cc(C)n(-c3ccc(Cl)cc3)c2C)nc1-c1ccccc1 [compound 8]	2 to 5 µg/mL (≈ 5.53 to 13.8 µM)
Cc1[nH]c(-c2cc(C)n(-c3ccc(F)cc3F)c2C)nc1-c1ccccc1 [compound 9]	2 to 5 µg/mL (≈ 5.5 to 13.8 µM)
Cc1[nH]c(-c2cc(C)n(-c3ccc(F)c(F)c3F)c2C)nc1-c1ccccc1 [compound 10]	2 to 5 µg/mL (≈ 5.24 to 13.1 µM)
Cc1[nH]c(-c2csc(-c3ccc(F)cc3)n2)nc1-c1ccccc1 [compound 11]	2 to 5 µg/mL (≈ 5.96 to 14.9 µM)
Cc1[nH]c(-c2ccc(-c3cccc(Cl)c3)s2)nc1-c1ccccc1 [compound 12]	2 to 5 µg/mL (≈ 5.7 to 14.3 µM)
Cc1[nH]c(-c2ccc(-c3cccc(Br)c3)s2)nc1-c1ccccc1 [compound 13]	2 to 5 µg/mL (≈ 5.06 to 12.6 µM)
Cc1[nH]c(-c2csc(-c3cccc(Br)c3)n2)nc1-c1ccccc1 [compound 14]	2 to 5 µg/mL (≈ 5.05 to 12.6 µM)
Cc1nc(-c2ccc(-c3ccccc3C(F)(F)F)o2)[nH]c1-c1ccccc1Cl [compound 20]	< 1 µg/mL
Cc1[nH]c(-c2ccc(-c3ccccc3C(F)(F)F)o2)nc1-c1ccc(Br)cc1 [compound 25]	2 to 5 µg/mL (≈ 4.47 to 11.2 µM)
Cc1[nH]c(-c2ccc(-c3ccccc3OC(F)(F)F)o2)nc1-c1ccc(C(F)(F)F)cc1 [compound 26]	2 to 5 µg/mL (≈ 4.42 to 11.1 µM)
C#Cc1ccc(-c2[nH]c(-c3ccc(-c4ccccc4C(F)(F)F)o3)nc2C)cc1 [compound 27]	< 1 µg/mL
CCc1ccc(-c2[nH]c(-c3ccc(-c4ccccc4C(F)(F)F)o3)nc2C)cc1 [compound 28]	2 to 5 µg/mL (≈ 5.05 to 12.6 µM)
COc1ccc(-c2ccc(-c3nc(C)c(-c4ccccc4)[nH]3)o2)c(C(F)(F)F)c1 [compound 31]	< 1 µg/mL
Cc1nc(-c2ccc(-c3cc(C(F)(F)F)ccc3Cl)o2)[nH]c1-c1ccccc1 [compound 40]	6 to 10 µg/mL (≈ 14.9 to 24.8 µM)

SMILES	MIC
Cc1ccc(-c2ccc(-c3nc(-c4ccccc4)c(C)[nH]3)o2)cc1 [compound 52]	6 to 10 µg/mL (≈ 19.1 to 31.8 µM)
CCc1ccc(-c2ccc(-c3nc(-c4ccccc4)c(C)[nH]3)o2)cc1 [compound 53]	2 to 5 µg/mL (≈ 6.09 to 15.2 µM)
Cc1ccc(-c2ccc(-c3nc(-c4ccccc4)c(C)[nH]3)s2)cc1 [compound 54]	6 to 10 µg/mL (≈ 18.2 to 30.3 µM)
Cc1ccc(-c2ncc(-c3nc(-c4ccccc4)c(C)[nH]3)s2)cc1 [compound 55]	2 to 5 µg/mL (≈ 6.03 to 15.1 µM)
Cc1ccc(-c2nc(-c3nc(-c4ccccc4)c(C)[nH]3)cs2)cc1 [compound 56]	2 to 5 µg/mL (≈ 6.03 to 15.1 µM)
Cc1ccc(-c2nc(-c3nc(-c4ccccc4)c(C)[nH]3)co2)cc1 [compound 57]	2 to 5 µg/mL (≈ 6.34 to 15.9 µM)
Cc1[nH]c(-c2cc(C)n(-c3ccc(C(C)C)cc3)c2C)nc1-c1ccccc1 [compound 58]	< 1 µg/mL
Cc1[nH]c(-c2cc(C)n(-c3ccc4c(c3)CCC4)c2C)nc1-c1ccccc1 [compound 59]	2 to 5 µg/mL (≈ 5.44 to 13.6 µM)
Cc1ccccc1-c1ccc(-c2nc(C)c(-c3ccccc3)[nH]2)o1 [compound 61]	2 to 5 µg/mL (≈ 6.36 to 15.9 µM)
Cc1cccc(C)c1-c1ccc(-c2nc(C)c(-c3ccccc3)[nH]2)o1 [compound 62]	2 to 5 µg/mL (≈ 6.09 to 15.2 µM)
FC(F)(F)Oc1ccccc1-c1ccc(-c2ncc(-c3ccccc3)[nH]2)o1 [compound 63]	2 to 5 µg/mL (≈ 5.4 to 13.5 µM)
Cc1nc(-c2ccc(-c3ccccc3N(C)C)o2)[nH]c1-c1ccccc1 [compound 71]	2 to 5 µg/mL (≈ 5.82 to 14.6 µM)
Cc1[nH]c(-c2coc(-c3ccccc3C(F)(F)F)c2)nc1-c1ccccc1 [compound 72]	6 to 10 µg/mL (≈ 16.3 to 27.1 µM)
Cc1[nH]c(-c2cnn(-c3ccccc3)n2)nc1-c1ccccc1 [compound 73]	6 to 10 µg/mL (≈ 19.9 to 33.2 µM)
Cc1[nH]c(-c2ccc(-c3ccccc3)s2)nc1-c1ccccc1 [compound 74]	2 to 5 µg/mL (≈ 6.32 to 15.8 µM)

test system: Staphylococcus aureus MRSA (COL); experiment: Broth microdilution MIC assay, Staphylococcus aureus MRSA (COL); assay type: cell-based; details: MIC class score, MIC100, broth microdilution, COL strain

SMILES	Antibacterial activity Staphylococcus aureus (MRSA)
CCCc1nc(-c2coc(-c3ccccc3C(F)(F)F)c2)[nH]c1C [Compound 112]	3 (MIC100 of 3-10 μg/ml)
CCCc1nc(-c2csc(-c3ccccc3C(F)(F)F)c2)[nH]c1C [Compound 113]	3 (MIC100 of 3-10 μg/ml)
CCCc1nc(-c2sc(-c3ccccc3C(F)(F)F)c3c2OCCO3)[nH]c1C [Compound 114]	3 (MIC100 of 3-10 μg/ml)
Cc1nc(-c2ccc(-c3ccc(F)cc3F)o2)[nH]c1-c1ccc(O)cc1 [compound 80]	2 (MIC100 of 11-20 μg/ml)
CCCc1[nH]c(-c2ccc(-c3ccccc3Cl)s2)nc1C [compound 82]	3 (MIC100 of 3-10 μg/ml)
CCCc1[nH]c(-c2ccc(-c3ccccc3)o2)nc1C [compound 94]	3 (MIC100 of 3-10 μg/ml)
CCCc1nc(-c2ccc(-c3ccccc3N(C)C)o2)[nH]c1C [compound 98]	3 (MIC100 of 3-10 μg/ml)
CCCc1nc(-c2ccc(-c3ccccc3C)o2)[nH]c1C [compound 100]	2 (MIC100 of 11-20 μg/ml)
CCCc1nc(-c2ccc(-c3c(C)cccc3C)o2)[nH]c1C [compound 103]	3 (MIC100 of 3-10 μg/ml)
